Reference: ChEMBL document CHEMBL1201862, “PubChem BioAssay data set” (2004)
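Method: 48-hour compound exposure of cells in 96-well plates, five concentrations, linear interpolation of endpoints. At the GI50, growth is halved.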 Activity calls are given as the source filed them. Rule as the data show it: active = GI50 up to about 1.1 µM and inactive = higher.

Assays:
Assay in all cases: inhibition of tumour cell growth, NCI panel, 48 h
HCT-15 = system: HCT-15
M19-MEL = system: M19-MEL
ACHN = system: ACHN
A498 = system: A498
KM-20L2 = system: KM-20L2
DMS-273 = system: DMS-273
DU-145 = system: DU-145
DLD-1 = system: DLD-1
NCI-H460 = system: NCI-H460
Malme-3M = system: Malme-3M
SW-620 = system: SW-620
HT-29 = system: HT-29
CCRF-CEM = system: CCRF-CEM
CAKI-1 = system: CAKI-1
OVCAR-5 = system: OVCAR-5
PC-3 = system: PC-3
T47D = system: T47D
BT-549 = system: BT-549
Hs-578T = system: Hs-578T
MDA-MB-435 = system: MDA-MB-435

| SMILES | GI50 (HCT-15) | GI50 (M19-MEL) | GI50 (ACHN) | GI50 (A498) | GI50 (KM-20L2) | GI50 (DMS-273) | GI50 (DU-145) | GI50 (DLD-1) | GI50 (NCI-H460) | GI50 (Malme-3M) | GI50 (SW-620) | GI50 (HT-29) | GI50 (CCRF-CEM) | GI50 (CAKI-1) | GI50 (OVCAR-5) | GI50 (PC-3) | GI50 (T47D) | GI50 (BT-549) | GI50 (Hs-578T) | GI50 (MDA-MB-435) |
| --- | --- | --- | --- | --- | --- | --- | --- | --- | --- | --- | --- | --- | --- | --- | --- | --- | --- | --- | --- | --- |
| O=CN/C=C/c1ccccc1O | > 100 µM | > 100 µM (inactive) | > 100 µM (inactive) | > 100 µM (inactive) | > 100 µM (inactive) | > 100 µM (inactive) | > 100 µM (inactive) | > 100 µM (inactive) | > 100 µM (inactive) | > 100 µM (inactive) | > 100 µM (inactive) | > 100 µM (inactive) | > 100 µM (inactive) | > 100 µM (inactive) | > 100 µM (inactive) | – | – | – | – | – |
| COC(=O)c1c(-c2ccccc2)cc2c3cc(-c4ccccc4)c(C(=O)OC)n3c3ccccc3n12 | > 100 µM | > 100 µM (inactive) | > 100 µM (inactive) | > 100 µM (inactive) | > 100 µM (inactive) | 79.3 µM (inactive) | – | > 100 µM (inactive) | > 100 µM (inactive) | > 100 µM (inactive) | > 100 µM (inactive) | > 100 µM (inactive) | > 100 µM (inactive) | > 100 µM (inactive) | > 100 µM (inactive) | – | – | – | – | – |
| Cc1c(N)nc(C2CC(=O)N2CC(N)C(N)=O)nc1C(=O)NC(C(=O)NC(C)C(O)C(C)C(=O)NC(C(=O)NCCc1nc(-c2nc(C(=O)NCCNCC(C)O)cs2)cs1)C(C)O)C(OC1OC(CO)C(O)C(O)C1OC1OC(CO)C(O)C(OC(N)=O)C1O)c1c[nH]cn1 (centres undefined) | 2.73 µM | 5.04 µM (inactive) | < 0.0249 µM (active) | 5.35 µM (inactive) | 58.6 µM (inactive) | 0.129 µM (active) | 7.87 µM (inactive) | 32.4 µM (inactive) | 0.1 µM (active) | 0.336 µM (active) | 13.9 µM (inactive) | 21.3 µM (inactive) | 7.74 µM (inactive) | < 0.0426 µM (active) | 2.67 µM (inactive) | > 50 µM (inactive) | > 5 µM (inactive) | > 50 µM (inactive) | 2.3 µM (inactive) | 3.1 µM (inactive) |
